Assay [1] deals with Staphylococcus aureus. Kind of assay: Antibacterial activity against methicillin-resistant Staphylococcus aureus. The assay is classed as functional.
For assay [2], the system named is Staphylococcus aureus. Kind of assay: Antibacterial activity against multidrug-resistant Staphylococcus aureus. The assay is classed as functional.

One may read the MIC as the least concentration at which growth counts as inhibited. A low value points to a more susceptible organism. As to `C=C[C@@H](O)C#CC#C[C@H](O)CCO`, the minimal inhibitory concentration (MIC) with Staphylococcus aureus [1] and in the assay with Staphylococcus aureus [2] was over 128 µg/mL throughout.

With `CC1=C2[C@H](O)[C@H](C(C)C)CC[C@@]2(C)[C@H](O)C[C@H]1O` (relative stereo), the MIC in the assay with Staphylococcus aureus [1] and in the assay with Staphylococcus aureus [2] was over 128 µg/mL in each case.

Source of the values: ChEMBL document CHEMBL1151216, “New constituents of Artemisia monosperma” (2004).
